PMC7796107, “Efficient Separation of Phytochemicals from Muehlenbeckia volcanica (Benth.) Endl. by Polarity-Stepwise Elution Counter-Current Chromatography and Their Antioxidant, Antiglycation, and Aldose Reductase Inhibition Potentials” (Molecules, 2021)
Like-named read-outs stand apart in the source and are kept apart here. Marks after values point to notes of the source that are not given here.

How the values were obtained:
[1] = DPPH radical scavenging assay; assay type: biochemical; conditions: Trolox equivalent antioxidant capacity
Experimental: (§1) The antioxidant activities of the 70% methanol extract of M. volcanica and the separated compounds were evaluated using DPPH, ABTS, and ORAC assays. The results were expressed as Trolox equivalent antioxidant capacity (TEAC, µg Trolox/µg extract or µM Trolox/µM compound), which were calculated with the equations obtained from the calibration curves of Trolox standards (final concentrations) versus their DPPH and ABTS radical inhibition (%) and the net AUC value (ORAC assay).
The DPPH radical scavenging assay was carried out using an EL800 microplate reader (Bio-Tek Instruments, Winooski, VT, USA). Briefly, 180 μL of freshly prepared DPPH solution (0.32 mM in methanol) was mixed with 20 μL of sample (dissolved in methanol, extract 250 µg/mL; compounds 62.5–1000 µM) in a 96-well plate. The mixture was incubated for 20 min in the dark at 25 °C, and then, the absorbance was measured at […]. […] Results are expressed in µg Trolox equivalents/µg extract or µM Trolox equivalents/µM compound. The DPPH radical scavenging activity (%) is calculated using Equation (1):(1) %inhibition=1−Asample−Ablank1/Acontrol−Ablank2×100%, where Asample is the absorbance of DPPH solution with a sample, Ablank1 is the absorbance of the test sample without DPPH, Acontrol is the absorbance of DPPH solution without a sample, Ablank2 is the absorbance of methanol, without DPPH or a sample.

[2] = target: fructose-mediated bovine serum albumin (BSA) glycation (Bos taurus, UniProt P02769); assay: Antiglycation assay, fructose-mediated BSA glycation model; conditions: for inhibition at 12.5 µM / inhibition at 25 µM / inhibition at 50 µM / inhibition at 100 µM: read-out: Antiglycation activity, inhibition (%)
[3] = ORAC (oxygen radical absorbance capacity) assay; assay type: biochemical; conditions: Trolox equivalent antioxidant capacity, ORAC assay (peroxyl radicals)
Experimental: as §1
The ORAC assay was carried out using a Fluoroskan Ascent FL microplate reader (Thermo, Waltham, MA, USA) using the method described previously with minor modifications. Antioxidants can scavenge the peroxyl radicals generated by AAPH, which prevent the degradation of the fluorescein and, therefore, prevent the loss of the fluorescence of fluorescein. Briefly, fluorescein sodium salt (117 nM) and AAPH (40 mM) were freshly prepared in 0.1 M phosphate-buffered saline (PBS, pH 7.4). For reaction, 120 µL of fluorescein sodium salt (117 nM) and 20 µL of sample (dissolved in methanol, extract 10–20 µg/mL; compounds 10–160 µM) were mixed in a black 96-well plate and pre-incubated for 15 min at 37 °C. Next, 60 µL of AAPH (40 mM) was added, and the fluorescence was measured 100 times (interval 1 min) at excitation and emission wavelengths of 485 nm and 538 nm, respectively, by the microplate reader maintained at 37 °C. […] The relative ORAC values are expressed in µg Trolox equivalents/µg extract or µM Trolox equivalents/µM compound.

[4] = ABTS radical scavenging assay; assay type: biochemical; conditions: Trolox equivalent antioxidant capacity
Experimental: as §1
The ABTS radical scavenging assay was carried out using the same EL800 microplate reader. Briefly, 0.2 mM of ABTS diammonium salt was prepared in 3.5 mM of potassium persulfate aqueous solution, and the mixture solution was then diluted 10 times using distilled water. The diluted solution was allowed to stand for 24 h in the dark at room temperature (about 25 °C) to produce ABTS radical cations (ABTS^+). For reaction, 290 μL of ABTS^+ solution was mixed with 10 μL of sample (dissolved in methanol, extract 62.5–125 µg/mL; compounds 20–250 µM) in a 96-well plate, and the mixture solution was allowed to react for 10 min at 25 °C in the dark. Then, the absorbance was measured at 750 nm. […] Results are expressed in µg Trolox equivalents/µg extract or µM Trolox equivalents/µM compound. The ABTS radical scavenging activity (%) is calculated using Equation (1) where Asample is the absorbance of ABTS^+ solution with a sample, Ablank1 is the absorbance of the test sample without ABTS^+, Acontrol is the absorbance of ABTS^+ solution without a sample, Ablank2 is the absorbance of buffer, without ABTS^+ or a sample.

aldose reductase (AR) = target: T1, aldose reductase (AR) (Rattus norvegicus, UniProt P07943); assay: Aldose reductase (AR) inhibition assay, rat lens homogenate; assay type: biochemical, Sprague–Dawley rats; conditions: for IC50: rat lens AR homogenate
T1 construct: centrifuged at 10,000× g for 30 min at 4 °C (Centrifuge 5417R, Eppendorf, Germany) to obtain AR homogenate (in the supernatant); from tissue; host or cells: eye lenses of Sprague–Dawley rats
Experimental: For the extraction of AR, the rat eye lenses were grounded in a precooled mortar (−70 °C) and extracted using 0.1 M PBS (pH 6.2; about 0.5 mL of PBS per two frozen rat lenses).
A 96-well plate-based AR inhibition assay was used in this study, which was modified from a previous method. In principle, the rate of the absorbance decrease of NADPH at 340 nm (OD340 nm) was used for evaluation of the AR inhibitory activity. […] Then, as soon as 20 μL of the substrate (DL-glyceraldehyde dimer, 25 mM in 0.1 M PBS, pH 7.0) was added, the absorbance of the reaction solution at 340 nm was measured for 6 min using an Epoch microplate spectrophotometer (BioTek Instruments, Highland Park, IL, USA). […] The samples were first prepared at high concentrations in DMSO or in a mixture of DMSO and water and then diluted using water shortly before the experiment. The concentration of DMSO was kept within 0.2% (v/v) in the reaction system. […] The AR inhibition ratio (%) for the samples was calculated using Equation (4):(4) %inhibition=1−Slopes−Slopeb/Slopec−Slopeb×100%, where Slopec, Slopes, and Slopeb are the slopes obtained from the OD340 nm versus the reaction time (min) dotted lines of the control group (without sample), sample group (with enzyme and sample), and blank group (without enzyme or sample), respectively. |Slope| is the absolute value of Slope.

[5] = test system: streptozotocin-induced diabetic rats; conditions: cited from earlier work
[6] = cited from earlier work
diabetic Octodon degus = test system: diabetic Octodon degus; parameters: method as in PMID 401544; conditions: oral administration; cited from earlier work
[7] = 6.25 µM, read-out: AR inhibition activity, inhibition (%)
[8] = 12.5 µM, read-out: AR inhibition activity, inhibition (%)
[9] = 25 µM, read-out: AR inhibition activity, inhibition (%)
[10] = 50 µM, read-out: AR inhibition activity, inhibition (%)
[11] = read-out: AR inhibition activity, inhibition (%)

fructose-mediated bovine serum albumin (BSA) glycation, sequence (P02769 25-607): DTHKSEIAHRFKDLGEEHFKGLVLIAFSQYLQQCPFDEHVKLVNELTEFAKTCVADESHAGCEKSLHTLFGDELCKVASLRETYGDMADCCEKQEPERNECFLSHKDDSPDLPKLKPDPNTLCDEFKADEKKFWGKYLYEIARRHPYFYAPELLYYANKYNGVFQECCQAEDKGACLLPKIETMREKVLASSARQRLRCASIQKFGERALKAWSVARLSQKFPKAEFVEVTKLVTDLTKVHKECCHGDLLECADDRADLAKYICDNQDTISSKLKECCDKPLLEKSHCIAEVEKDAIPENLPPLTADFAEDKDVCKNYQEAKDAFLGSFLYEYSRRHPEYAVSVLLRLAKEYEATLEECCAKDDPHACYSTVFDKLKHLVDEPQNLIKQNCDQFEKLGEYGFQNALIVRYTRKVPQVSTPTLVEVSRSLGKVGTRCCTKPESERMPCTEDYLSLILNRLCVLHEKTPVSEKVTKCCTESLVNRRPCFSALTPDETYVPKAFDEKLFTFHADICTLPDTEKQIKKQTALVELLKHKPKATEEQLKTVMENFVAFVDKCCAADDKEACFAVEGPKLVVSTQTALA

| Compound | TEAC, DPPH [1] | IC50 [2] | inhibition at 12.5 µM [2] | inhibition at 25 µM [2] | inhibition at 50 µM [2] | inhibition at 100 µM [2] | TEAC, ORAC [3] | TEAC, ABTS [4] | inhibition at 6.25 µM (aldose reductase (AR); [7]) | inhibition at 12.5 µM (aldose reductase (AR); [8]) | inhibition at 25 µM (aldose reductase (AR); [9]) | inhibition at 50 µM (aldose reductase (AR); [10]) | Effect on oxidative stress [5] | also measured |
| --- | --- | --- | --- | --- | --- | --- | --- | --- | --- | --- | --- | --- | --- | --- |
| O=C(O)c1ccc(O)c(Nc2cc(C(=O)O)ccc2O)c1 [4,4′-dihydroxy-3,3′-imino-di-benzoic acid] | 1.38 ± 0.05 ^d µM trolox/µM Compound | 60.5 ± 2.62 µM | < 0% | 14.9 ± 3.87% | 44.5 ± 2.54% | 68.4 ± 0.92% | 5.75 ± 0.26 ^b µM trolox/µM Compound | 1.27 ± 0.03 ^c µM trolox/µM Compound | 8.57 ± 0.06% | 14.4 ± 0.6% | 27.2 ± 0.36% | 53.3 ± 2.76% | – | IC50 (aldose reductase (AR)): 47 ± 2.28 µM |
| O=C(O)c1cc(O)c(O)c(O)c1 [Gallic acid (3), gallic acid] | 3.01 ± 0.04 ^a µM trolox/µM Compound | – | < 0% | < 0% | 3.69 ± 2.97% | 8.42 ± 1.27% | 1.43 ± 0.08 ^d µM trolox/µM Compound | 3.35 ± 0.06 ^b µM trolox/µM Compound | < 0% | 4.16 ± 5.43% | 4.16 ± 1.81% | 13.5 ± 1.21% | ameliorate the oxidative stress | TEAC, DPPH ([1]; listed as gallic acid): 3.01 µM trolox/µM Compound |
| O=C(O)c1ccc(O)c(O)c1 [Protocatechuic acid (4), protocatechuic acid] | 0.72 ± 0.01 ^f µM trolox/µM Compound | – | 5.26 ± 4.29% | 11.4 ± 3.92% | 36.1 ± 0.78% | 48.4 ± 1.76% | 5.79 ± 0.32 ^b µM trolox/µM Compound | 0.88 ± 0.03 ^g µM trolox/µM Compound | – | – | – | – | ameliorate the oxidative stress | inhibition at 6.25 µM (aldose reductase (AR); [11]): 0.96 ± 2.11%; inhibition at 12.5 µM (aldose reductase (AR); [11]): 2.67 ± 2.71%; inhibition at 25 µM (aldose reductase (AR); [11]): 7.14 ± 0.6%; inhibition at 50 µM (aldose reductase (AR); [11]): 7.78 ± 1.51% |
| Cl.N=C(N)NN [Aminoguanidine hydrochloride, aminoguanidine hydrochloride, reference compound] | – | – | – | – | – | – | – | – | – | – | – | – | – | Antiglycation activity, inhibition (%) ([2]; 1000 µM): 10.99 ± 0.07%; Antiglycation activity, inhibition (%) ([2]; 2000 µM): 44.58 ± 0.54%; Antiglycation activity, inhibition (%) ([2]; 4000 µM): 81.26 ± 0.88%; Antiglycation IC50 ([2]; fructose-mediated BSA glycation, 14 days, 37 °C): 317.36 µg/mL; IC50 ([2]; read-out: Antiglycation activity, IC50, fructose-mediated BSA glycation): 2181 ± 8.11 µM |
| O=C(O)[C@H]1O[C@@H](Oc2c(-c3ccc(O)c(O)c3)oc3cc(O)cc(O)c3c2=O)[C@H](O)[C@@H](O)[C@@H]1O [Miquelianin (7), miquelianin] | 1.97 ± 0.02 ^c µM trolox/µM Compound | 24.5 ± 0.52 µM | 24.9 ± 2.12% | 49.4 ± 1.26% | 78 ± 2.28% | 90 ± 1.92% | 5.85 ± 0.20 ^b µM trolox/µM Compound | 0.99 ± 0.05 ^f µM trolox/µM Compound | – | – | – | – | – | IC50 (aldose reductase (AR)): 7.93 ± 0.4 µM; inhibition at 3.125 µM (aldose reductase (AR); [11]): 29.7 ± 1.21%; inhibition at 6.25 µM (aldose reductase (AR); [11]): 44.5 ± 2.11%; inhibition at 12.5 µM (aldose reductase (AR); [11]): 59.1 ± 6.86%; inhibition at 25 µM (aldose reductase (AR); [11]): 76.7 ± 1.21% |
| O=C(O)C1=C[C@@H](O)[C@@H](O)[C@H](O)C1 [Shikimic acid (2), shikimic acid] | – | – | < 0% | < 0% | < 0% | < 0% | – | – | < 0% | 0.32 ± 1.21% | 5.86 ± 5.42% | 7.36 ± 0.3% | – | – |
| C[C@@H]1O[C@@H](Oc2c(-c3ccc(O)c(O)c3)oc3cc(O)cc(O)c3c2=O)[C@H](O)[C@H](O)[C@H]1O [Quercitrin (9), quercitrin] | 0.92 ± 0.01 ^e µM trolox/µM Compound | 17.6 ± 0.28 µM | 32.3 ± 0.24% | 75.2 ± 2.52% | 89.1 ± 1.26% | 94.3 ± 1.39% | 5.32 ± 0.29 ^c µM trolox/µM Compound | 1.07 ± 0.05 ^e µM trolox/µM Compound | – | – | – | – | ameliorate the oxidative stress | Inhibition of AGEs by trapping methylglyoxal [6]: inhibit AGEs by trapping methylglyoxal; Accumulation of sorbitol in the lens (diabetic Octodon degus): significantly decreased; Onset of cataract (diabetic Octodon degus): delayed; inhibition at 0.049 µM (aldose reductase (AR); [11]): 12 ± 0.82%; inhibition at 0.098 µM (aldose reductase (AR); [11]): 33.3 ± 2.17%; inhibition at 0.195 µM (aldose reductase (AR); [11]): 54.6 ± 1.78%; inhibition at 3.125 µM (aldose reductase (AR); [11]): 94.35 ± 0.3% |
